Test results published in patent publication US20230286995A1, “METABOLICALLY STABLE PYRIMIDINYL DIHYDROQUINOXALINONES AS TUBULIN POLYMERIZATION INHIBITORS” (UNIVERSITY OF TENNESSEE RESEARCH FOUNDATION, priority 2022, published 2023).
Like-named read-outs stand apart in the source and are kept apart here.

Assays:
A-253 and Detroit 562 [1] = assay: Western blot of apoptosis markers, head and neck cancer; assay type: cell-based, human; conditions: 100 nM, 72 hours
Excerpt: FIG. 42A illustrates that compound 12k induces apoptosis in the A-253 cell line. FIG. 42B illustrates that compound 12k induces apoptosis in the Detroit 562 cell line.

PANC-1 [2] = assay: Cytotoxicity assay (MTS, 72 h); assay type: cell-based; conditions: Homo sapiens
Protocol: Mia PaCa-2 and PANC-1 cells were seeded in 96-well plates at 4000 and 5000 cells per well, respectively.
(§1) Cytotoxicity Assay. […] Each experiment consisted of four replicates.

MDA-MB-231 = assay: Cytotoxicity assay (MTS, 72 h); assay type: cell-based; conditions: Homo sapiens
in vivo = conditions: male, NSG, mouse, brain/plasma, iv, 4 mg/kg
[3] = Pharmacokinetic evaluation of 12k in mice; assay type: in vivo, NSG mice; conditions: female, mouse, plasma; for half-life: NSG
Protocol: Female NSG mice at 7 to 9 weeks of age were used in pharmacokinetic studies. Mice received a single dose of 4 mg/kg 12k intravenously (50% PEG300:50% saline) or 10 mg/kg orally (90% PEG300:10% saline). Blood of animals (n=3) was collected in heparinized tubes via terminal intracardiac blood collection at predefined time points (0.08, 0.25, 0.5, 1, 3, 6, 12, 24 h) and plasma was immediately separated by centrifugation (10,000 rpm for 10 min at 4° C.) and stored at −80° C. until analysis.

M14 = assay: Cytotoxicity assay (MTS, 72 h); conditions: Homo sapiens, M14, read-out: IC50 (nM) Melanoma Cancer M14
in vitro [4] = conditions: human, liver microsomes
A-253 cells = assay: Colony formation, head and neck cancer; assay type: cell-based, human
Protocol: (§2) FIG. 41A illustrates the effect of compound 12k on colony formation in the A-253 cell line. FIG. 41B illustrates the effect of compound 12k on colony formation in the Detroit 562 cell line. Colony formation experiments were performed as described elsewhere herein.

Detroit 562 cells = assay: Colony formation, head and neck cancer; assay type: cell-based, human
Protocol: as §2

A-253 and Detroit 562 [5] = assay: Cytotoxicity in head and neck cancer cell lines; assay type: cell-based; conditions: Homo sapiens; FIG. 39A; read-out: IC50 values, range over A-253 and Detroit 562
Protocol: A panel of dihydroquinoxalinones were tested in two head and neck cancer cell lines, A-253 and Detroit 562. A-253 cells are a human salivary epidermoid carcinoma cell line, whereas Detroit 562 is a head and neck squamous cell carcinoma (HNSCC). Oral cancer is the most common type of head and neck cancer and more than 90% of oral cancers are either oral or oropharyngeal squamous cell carcinoma (SCC). A major clinical dilemma is chemotherapy efficiency targeted for head and neck squamous cell carcinoma (HNSCC). The inability to successfully complete cancer treatment utilizing a standard surgical approach due to an advanced stage of HNSCC and/or resistance of SCC cells to conventional chemotherapy and/or radiotherapy leads to a continuous search for new compounds with cytostatic activity and minor side effects.
FIGS. 39B and 39C illustrate the graphical representation of the data. […] For example, at treatment levels as low of 0.5 nM, 12k was able to prevent head and neck cancer cell proliferation almost completely, whereas it required 5 nM of 17ya to achieve similar antiproliferation.

A375 = assay: Cytotoxicity assay (MTS, 72 h); conditions: Homo sapiens, A-375, read-out: IC50 (nM) Melanoma Cancer A375, Table 6;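 further: compounds tested from 0.1 nM up to 3 µM in four replicate wells, with absorbance read at 490 nm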
in vitro [6] = conditions: mouse, liver microsomes
PC3 = assay: Cytotoxicity assay (MTS, 72 h); assay type: cell-based; conditions: Homo sapiens, PC-3; Table 6; read-out: IC50 (nM) Prostate cancer PC3
Excerpt: as §1

PC3/TxR = assay: Cytotoxicity assay (MTS, 72 h); assay type: cell-based; conditions: Homo sapiens, Table 6, paclitaxel-resistant, read-out: IC50 (nM) Prostate cancer PC3/TxR
Protocol: Biology. Cell culture and Reagents. […] MIA Paca-2 pancreatic cancer cells were cultured in media also supplemented with 2.5% horse serum. PANC-1 and PC-3 were cultured in RPMI 1640 medium (Gibco, Carlsbad, Calif.) supplemented with 10% FBS and 1% antibiotic/antimycotic mixture. […] For biological experiments, pyrimidine dihydroquinoxalinone derivatives were dissolved in DMSO to create 20 mM stock solutions and stored at −20° C. until use.
as §1

MDA-MB-453 = assay: Cytotoxicity assay (MTS, 72 h); assay type: cell-based, human; conditions: Homo sapiens, MDA-MB-453; Table 6; read-out: IC50 (nM) Breast Cancer MDA-MB-453
[7] = tested on: PC-3/TxR xenograft tumors; assay: Subcutaneous PC-3/TxR xenograft model; assay type: in vivo
Mia PaCa-2 [8] = assay: Cytotoxicity assay (MTS, 72 h); assay type: cell-based; conditions: Homo sapiens
A-253 and Detroit 562 [9] = assay: Head and neck cancer cell proliferation (confluence %)
MDA-MB-231/VxR = assay: Cytotoxicity assay (MTS, 72 h); assay type: cell-based; conditions: Homo sapiens, MDA-MB-231, read-out: IC50 ± SEM (nM) MDA-MB-231/VXR
porcine brain tubulin = molecular target: T1, porcine brain tubulin (Sus scrofa, UniProt P02550+P02554); assay: Tubulin polymerization inhibitory assay (FIG. 29A); assay type: biochemical; conditions: 10 μM, 37° C.; DMSO control 0.3
T1 construct: tubulin mixture containing porcine brain tubulin (3 mg/mL); purchased Cytoskeleton, Inc. T-238P; host or cells: porcine brain
Protocol: Tubulin polymerization inhibitory assay: In vitro tubulin polymerization assay was carried out according to the manufacturers' instructions (Cytoskeleton). Briefly, 10 μM of 5v was added into tubulin protein (3 mg/mL, purity>99%), and the mixture was transferred into a microplate reader and incubated at 37° C. […] Colchicine and paclitaxel were used as positive controls. […] The assay was carried out in duplicate.

A549/TxR = assay: cells; conditions: Homo sapiens, read-out: IC50 ± SEM (nM) A549/TxR
MDA-MB-231/TxR = assay: Cytotoxicity assay (MTS, 72 h); assay type: cell-based; conditions: Homo sapiens, read-out: IC50 ± SEM (nM) MDA-MB-231/TxR, Table 2, paclitaxel-resistant
A375/TxR xenografts = assay: In vivo A375/TxR melanoma xenograft model; set-up: species or system NSG mice
Mia PaCa-2 cells = assay: Scratch migration assay (PDAC); assay type: cell-based, human; conditions: 5m 2 nM, PTX 4 nM, 48 h; listed as PTX
Protocol: The Mia PaCa-2 cells (25,000 cells/well) were seeded in 96-well plates and allowed to adhere overnight. At 80-90% confluence, scratch was made with a wound maker. After washing off the debris, medium was replaced and tested compounds were added. Cells were live monitored with IncuCyte and pictures obtained every 2 h. Compared with the control, the wound width of cells under different treatment conditions was quantified according to the endpoint width over starting point.

PANC-1 [10] = assay: Colony formation assay (PDAC); assay type: cell-based, human; conditions: tested 1, 2.5, 5 nM
Mia PaCa-2 [11] = assay: Colony formation assay (PDAC); assay type: cell-based, human; conditions: tested 1, 2.5, 5 nM
Protocol: Cells were seeded at 1000 cells per well in 6-well plates in triplicates and treated with vehicle control or 1-5 nmol/L test compounds for 11 to 14 days. The colonies were fixed with 100% methanol and stained with 0.5% crystal violet. Colony area was quantified with Image J software.

[12] = tested on: A2780/TxR ovarian cancer xenografts; assay: Orthotopic A2780/TxR ovarian cancer xenograft model; conditions: paclitaxel 5 mg/kg IV
[13] = molecular target: T2, tubulin protein from bovine brain (Bos taurus, UniProt P81947+Q6B856); assay: Tubulin polymerization assay (FIG. 5A); assay type: biochemical; conditions: 10 μM, cell-free
T2 construct: tubulin protein from bovine brain origin; purchased Cytoskeleton, Denver, Colo; host or cells: bovine brain
Protocol: Tubulin polymerization reaction was initiated by adding 100 μL of tubulin protein from bovine brain origin (3 mg/ml, Cytoskeleton, Denver, Colo.) into 10 μM of test compounds in general tubulin buffer (80 mM PIPES, 2.0 mM MgCl2, 0.5 mM EGTA, and 1 mM GTP) according to the manufacturer protocol. The reaction kinetics were recorded in every thirty seconds for 1 h at 37° C. and a microplate reader equipped with absorbance settings at 340 nm wavelength was used for this purpose. The experiment was performed in duplicates.

[14] = intravenous (4 mg/kg), NSG mice

T2 sequence (P81947 whole entry): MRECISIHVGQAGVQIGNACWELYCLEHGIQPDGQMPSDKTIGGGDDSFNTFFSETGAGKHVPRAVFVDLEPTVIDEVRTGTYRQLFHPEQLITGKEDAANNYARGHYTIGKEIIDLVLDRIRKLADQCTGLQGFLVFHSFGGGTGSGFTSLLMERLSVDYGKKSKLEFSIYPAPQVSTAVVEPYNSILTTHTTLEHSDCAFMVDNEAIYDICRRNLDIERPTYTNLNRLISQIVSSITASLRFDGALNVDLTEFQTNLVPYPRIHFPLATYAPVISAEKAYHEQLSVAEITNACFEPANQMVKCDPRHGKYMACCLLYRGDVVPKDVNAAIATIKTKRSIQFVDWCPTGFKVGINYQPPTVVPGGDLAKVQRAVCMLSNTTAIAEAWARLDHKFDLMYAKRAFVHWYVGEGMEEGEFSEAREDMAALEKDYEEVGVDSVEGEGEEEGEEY
T2 sequence (Q6B856 whole entry): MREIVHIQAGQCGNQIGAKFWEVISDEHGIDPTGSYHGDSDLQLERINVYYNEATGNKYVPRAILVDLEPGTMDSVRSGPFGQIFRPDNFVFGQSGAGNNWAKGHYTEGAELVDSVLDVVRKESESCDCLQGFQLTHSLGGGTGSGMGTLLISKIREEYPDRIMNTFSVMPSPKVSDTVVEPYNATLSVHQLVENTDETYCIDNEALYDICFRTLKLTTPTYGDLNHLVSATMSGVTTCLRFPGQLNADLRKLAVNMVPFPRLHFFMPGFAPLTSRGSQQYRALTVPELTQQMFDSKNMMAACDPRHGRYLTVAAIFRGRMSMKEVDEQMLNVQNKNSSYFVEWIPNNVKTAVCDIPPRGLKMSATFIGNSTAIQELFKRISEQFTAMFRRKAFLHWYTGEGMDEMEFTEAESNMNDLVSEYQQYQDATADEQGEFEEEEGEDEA
T1 sequence (P02550 whole entry): as the sequence (P81947 whole entry) above, with L136S, S232G, I265A, S340T, Q358E counted along it
T1 sequence (P02554 whole entry): as the sequence (Q6B856 whole entry) above, with T55A, M170V, S296A, I316V, E440G, G441E counted along it

SMILES: CNc1nc2c(c(N3CC(=O)Nc4cc(OC)ccc43)n1)CCC2 [Compound 12k, 7-methoxy-4-(2-(methylamino)-6,7-dihydro-5H-cyclopenta[d]pyrimidin-4-yl)-3,4-dihydroquinoxalin-2(1H)-one]
- apoptotic markers c-PARP and c-cas 3 (A-253 and Detroit 562 [1]): elevated levels of apoptotic markers
- IC50 (PANC-1 [2]; Table 6, read-out: IC50 (nM) Pancreatic cancer PANC-1): 2.8 ± 0.5 nM
- IC50 (MDA-MB-231; MDA-MB-231, read-out: IC50 (nM) Breast Cancer MDA-MB-231, Table 6): 2.2 ± 1.5 nM
- Kp at 1 h (in vivo): 0.45
- half-life ([3]; intravenous, 4 mg/kg, text b345, read-out: in vivo half-life): 3.97 h
- half-life ([3]; iv, 4 mg/kg, intravenous (4 mg/kg), NSG mice, read-out: t1/2 (converted)): 3.97 h
- half-life ([3]; po, 10 mg/kg, oral (10 mg/kg), NSG mice, read-out: t1/2 (converted)): 5.97 h
- AUC [3, 14]: 2890 ng·h/mL
- Cmax [3, 14]: 1250 ng/mL
- Tmax [3, 14]: 0.0833 h
- AUC ([3]; oral (10 mg/kg), NSG mice): 136 ng·h/mL
- Cmax ([3]; oral (10 mg/kg), NSG mice): 78.3 ng/mL
- Tmax ([3]; oral (10 mg/kg), NSG mice): 0.167 h
- bioavailability ([3]; oral (10 mg/kg), NSG mice): 2.02%
- IC50 (M14): 0.7 ± 0.1 nM
- half-life at 1 μg/mL (in vitro [4]): > 5 h
- microsomal CLint at 1 μg/mL (in vitro [4]): < 2.31 µL/min/mg
- concentration with near complete inhibition of colony formation (A-253 cells): 1 nM
- concentration with near complete inhibition of colony formation (Detroit 562 cells): 2 nM
- IC50 (A-253 and Detroit 562 [5]): 0.52 to 3.2 nM
- IC50 (A375): 1.2 ± 0.2 nM
- half-life at 1 μg/mL (in vitro [6]): > 5 h
- microsomal CLint at 1 μg/mL (in vitro [6]): < 2.31 µL/min/mg
- IC50 (PC3): 0.5 ± 0.1 nM
- IC50 (PC3/TxR): 0.2 nM
- IC50 (MDA-MB-453): 0.9 ± 0.2 nM
- inhibition of tumor growth in volume (ex vivo) vs control ([7]; 2.5 mg/kg i.v., 2 doses/week): approximately 85.6%
- reduction of tumor weight vs control ([7]; 2.5 mg/kg i.v., 2 doses/week): 84.5%
- tolerability / body weight ([7]; 2.5 mg/kg twice per week): well tolerated
- IC50 (Mia PaCa-2 [8]; Table 6, read-out: IC50 (nM) Pancreatic cancer Mia PaCa-2): 2.9 ± 0.5 nM
- potency of 12k relative to compound 17ya (A-253 and Detroit 562 [9]; A-253 and Detroit 562): ~10 fold
- treatment level preventing cell proliferation almost completely (A-253 and Detroit 562 [9]; confluence over 62 h): 0.5 nM

SMILES: CC(=O)O[C@H]1C(=O)[C@@]2(C)[C@H]([C@H](OC(=O)c3ccccc3)[C@]3(O)C[C@H](OC(=O)[C@H](O)[C@@H](NC(=O)c4ccccc4)c4ccccc4)C(C)=C1C3(C)C)[C@]1(OC(C)=O)CO[C@@H]1C[C@@H]2O [Paclitaxel, reference compound]
- IC50 (MDA-MB-231/VxR): 3.4 ± 0.5 nM
- A340 at which tubulin assembly stabilized (porcine brain tubulin): approximately 0.4
- IC50 (PANC-1 [2]; Example 7, FIG. 20, read-out: calculated IC50, PANC-1 cells): 1.1 nM
- IC50 (A549/TxR): > 1000 nM
- IC50 (MDA-MB-231; MDA-MB-231, read-out: IC50 ± SEM (nM) MDA-MB-231, Table 2): 2.3 ± 0.4 nM
- IC50 (MDA-MB-231/TxR): > 50 nM
- spontaneous lung metastasis (A375/TxR xenografts; H&E and anti-human mitochondria IHC): no effect on the lung spontaneous metastasis
- tumor-suppressive effect (A375/TxR xenografts; paclitaxel 4 mg/kg IV twice a week): no significant tumor-suppressive effect
- effect on tumor growth (A375/TxR xenografts; paclitaxel 10 mg/kg IV, 2 times per week): ineffective
- cell migration / wound healing (Mia PaCa-2 cells): inhibited cell migration over 48 hours
- dose with nearly complete inhibition of colony formation (PANC-1 [10]): 5 nM
- dose at which colony formation was completely inhibited (Mia PaCa-2 [11]): 5 nM
- effect on A2780/TxR model [12]: limited effect
- tumor weight reduction ([7]; paclitaxel 10 mg/kg, 1 dose/week): insignificant tumor weight reduction
- IC50 (Mia PaCa-2 [8]; Example 7, FIG. 20, read-out: calculated IC50, Mia PaCa-2 cells): 2.5 nM
- effect on microtubule polymerization [13]: polymerization enhancement
